According to ChEMBL document CHEMBL1123199, “Synthesis and structure-activity relationships of naftifine-related allylamine antimycotics” (1986):
Converted amounts (≈) assume the structure as drawn.

What was measured:
Aspergillus fumigatus = assay: Antifungal activity measured against Aspergillus fumigatus; type: functional
Candida parapsilosis = assay: Antifungal activity against Candida parapsilosis.; type: functional; conditions: Lodderomyces parapsilosis
Epidermophyton floccosum = assay: Antifungal activity against Epidermophyton floccosum.; type: functional
Microsporum canis = assay: Antifungal activity against Microsporum canis; type: functional
Sporothrix schenckii = assay: Antifungal activity measured against Sporothrix schenck ii.; type: functional
Trichophyton benhamiae = assay: Antifungal activity measured against Trichophyton mentagrophytes; type: functional, Arthroderma benhamiae

SMILES	MIC (Aspergillus fumigatus) [µg/mL]	MIC (Candida parapsilosis) [µg/mL]	MIC (Epidermophyton floccosum) [µg/mL]	MIC (Microsporum canis) [µg/mL]	MIC (Sporothrix schenckii) [µg/mL]	MIC (Trichophyton benhamiae) [µg/mL]
C(=C\c1ccccc1)/CSCc1cccc2ccccc12	> 100	> 100	> 100	> 100	> 100	25 (≈ 86.1 µM)
CN(C/C=C/c1ccccc1)Cc1c2c(cc3c1CCC3)CCC2	> 100	> 100	3.1 (≈ 9.76 µM)	1.6 (≈ 5.04 µM)	6.25 (≈ 19.7 µM)	1.6 (≈ 5.04 µM)
C/C(=C\c1ccccc1)CN(C)Cc1cccc2ccccc12	> 100	> 100	100 (≈ 332 µM)	100 (≈ 332 µM)	100 (≈ 332 µM)	12.5 (≈ 41.5 µM)
CN(CCc1ccccc1)Cc1cccc2ccccc12	> 100	> 100	100 (≈ 363 µM)	100 (≈ 363 µM)	> 100	12.5 (≈ 45.4 µM)
C(=C\c1ccccc1)/CN(Cc1cccc2ccccc12)c1ccccc1	> 100	> 100	> 100	> 100	50 (≈ 143 µM)	> 100
C(=C\c1ccccc1)/CN(Cc1cccc2ccccc12)C1CCCCC1	> 100	> 100	> 100	> 100	> 100	> 100
O=S(=O)(C/C=C/c1ccccc1)Cc1cccc2ccccc12	> 100	> 100	> 100	> 100	> 100	> 100
CN(C/C=C/c1ccccc1)CC1=CCCc2ccccc21	> 100	25 (≈ 86.4 µM)	≤ 1.6	≤ 1.6	12.5 (≈ 43.2 µM)	≤ 1.6
CN(Cc1cccc2ccccc12)CC1CC1c1ccccc1 (stereo unspecified)	> 100	> 100	25 (≈ 82.9 µM)	12.5 (≈ 41.5 µM)	100 (≈ 332 µM)	12.5 (≈ 41.5 µM)
[O-][S+](C/C=C/c1ccccc1)Cc1cccc2ccccc12 (stereo unspecified)	> 100	> 100	> 100	> 100	> 100	> 100
CN(C/C=C/C1CCCCC1)Cc1cccc2ccccc12	> 100	> 100	12.5 (≈ 42.6 µM)	12.5 (≈ 42.6 µM)	> 100	1.6 (≈ 5.45 µM)
C[N+](C)(C/C=C/c1ccccc1)Cc1cccc2ccccc12.[I-]	> 100	> 100	> 100	> 100	> 100	25
CN(CCC(O)c1ccccc1)Cc1cccc2ccccc12 (stereo unspecified)	> 100	> 100	> 100	> 100	> 100	> 100
CN(CCC(=O)c1ccccc1)Cc1cccc2ccccc12	> 100	> 100	6.2 (≈ 20.4 µM)	6.2 (≈ 20.4 µM)	50 (≈ 165 µM)	6.2 (≈ 20.4 µM)
COc1ccc2ccccc2c1CN(C)C/C=C/c1ccccc1	> 100	> 100	50 (≈ 158 µM)	100 (≈ 315 µM)	> 100	50 (≈ 158 µM)
C(=C\c1ccccc1)/CN(Cc1ccccc1)Cc1cccc2ccccc12	> 100	> 100	> 100	> 100	> 100	> 100
CN(C/C=C/c1ccccc1)Cc1cc2ccccc2c2ccccc12	100 (≈ 296 µM)	100 (≈ 296 µM)	100 (≈ 296 µM)	100 (≈ 296 µM)	100 (≈ 296 µM)	100 (≈ 296 µM)
C(=C\c1ccccc1)/CN(C/C=C/c1ccccc1)Cc1cccc2ccccc12	> 100	> 100	> 100	> 100	> 100	> 100
C(=C\c1ccccc1)/C=N/Cc1cccc2ccccc12	> 100	> 100	100 (≈ 369 µM)	> 100	100 (≈ 369 µM)	100 (≈ 369 µM)
CC(/C=C/c1ccccc1)N(C)Cc1cccc2ccccc12 (stereo unspecified)	> 100	> 100	12.5 (≈ 41.5 µM)	25 (≈ 82.9 µM)	25 (≈ 82.9 µM)	< 1.6
CN(Cc1cccc2ccccc12)C(=O)/C=C/c1ccccc1	> 100	> 100	> 100	> 100	> 100	> 100
CN(C/C=C/c1ccccc1)C(c1ccccc1)c1ccccc1	> 100	> 100	> 100	> 100	> 100	> 100

Now from value to compound:

MIC (Aspergillus fumigatus) [µg/mL]	MIC (Candida parapsilosis) [µg/mL]	MIC (Epidermophyton floccosum) [µg/mL]	MIC (Microsporum canis) [µg/mL]	MIC (Sporothrix schenckii) [µg/mL]	MIC (Trichophyton benhamiae) [µg/mL]	SMILES
> 100	–	> 100	> 100	> 100	> 100	C=CCN(C)Cc1cccc2ccccc12
100 (≈ 319 µM)	> 100	3.1 (≈ 9.89 µM)	< 1.6	6.25 (≈ 19.9 µM)	< 1.6	C=CCN(C/C=C/c1ccccc1)Cc1cccc2ccccc12
> 100	> 100	100 (≈ 423 µM)	100 (≈ 423 µM)	> 100	100 (≈ 423 µM)	CN(C/C=C/C#N)Cc1cccc2ccccc12
> 100	> 100	50 (≈ 158 µM)	50 (≈ 158 µM)	> 100	6.2 (≈ 19.5 µM)	COc1ccc(/C=C/CN(C)Cc2cccc3ccccc23)cc1
> 100	> 100	12.5 (≈ 43.2 µM)	6.2 (≈ 21.4 µM)	> 100	3.1 (≈ 10.7 µM)	CN(CC(=O)c1ccccc1)Cc1cccc2ccccc12
> 100	> 100	100 (≈ 332 µM)	100 (≈ 332 µM)	100 (≈ 332 µM)	50 (≈ 166 µM)	C/C(=C\CN(C)Cc1cccc2ccccc12)c1ccccc1
> 100	> 100	> 100	> 100	> 100	> 100	C/C=C/CN(C)Cc1cccc2ccccc12
> 100	> 100	> 100	> 100	> 100	> 100	CC(=O)N(C/C=C/c1ccccc1)Cc1cccc2ccccc12
> 100	> 100	100 (≈ 296 µM)	100 (≈ 296 µM)	100 (≈ 296 µM)	1.6 (≈ 4.74 µM)	CN(C/C=C/c1cccc2ccccc12)Cc1cccc2ccccc12
> 100	100 (≈ 317 µM)	< 1.6	3.1 (≈ 9.83 µM)	50 (≈ 158 µM)	< 1.6	CC(C)N(C/C=C/c1ccccc1)Cc1cccc2ccccc12
> 100	> 100	25 (≈ 85.8 µM)	25 (≈ 85.8 µM)	100 (≈ 343 µM)	25 (≈ 85.8 µM)	CN(C/C=C/C1CC=CCC1)Cc1cccc2ccccc12 (stereo unspecified)
> 100	> 100	25 (≈ 86.7 µM)	25 (≈ 86.7 µM)	100 (≈ 347 µM)	< 1.6	CN(C/C=C/c1ccncc1)Cc1cccc2ccccc12
> 100	> 100	6.2 (≈ 22.4 µM)	6.2 (≈ 22.4 µM)	100 (≈ 361 µM)	< 1.6	CN(C/C=C/c1ccco1)Cc1cccc2ccccc12
> 100	> 100	25 (≈ 86.1 µM)	50 (≈ 172 µM)	50 (≈ 172 µM)	25 (≈ 86.1 µM)	CN(C/C=C/c1cccn1C)Cc1cccc2ccccc12
> 100	> 100	> 100	> 100	> 100	> 100	CN(C/C=C/CO)Cc1cccc2ccccc12
